Test results taken from patent publication US7354920B2, “Aryl and heteroaryl morpholine derivatives” (Eli Lilly and Company, priority 2002, dated 2008).
Structures can show the parent of a compound that is named as a salt. Where two headings read alike, the source gives them in different places.

Target: T1, human norepinephrine transporter (Homo sapiens, UniProt P23975)
T1 construct: isolate and amplify each of the three full-length cDNAs from an appropriate cDNA library; expressed in transfected cells; host or cells: HEK293 cells, stably transfected (pcDNA3.1-type vector); membranes used
Assay: Scintillation proximity assay, [3H]-nisoxetine binding at the norepinephrine transporter

T1 sequence (P23975 whole entry): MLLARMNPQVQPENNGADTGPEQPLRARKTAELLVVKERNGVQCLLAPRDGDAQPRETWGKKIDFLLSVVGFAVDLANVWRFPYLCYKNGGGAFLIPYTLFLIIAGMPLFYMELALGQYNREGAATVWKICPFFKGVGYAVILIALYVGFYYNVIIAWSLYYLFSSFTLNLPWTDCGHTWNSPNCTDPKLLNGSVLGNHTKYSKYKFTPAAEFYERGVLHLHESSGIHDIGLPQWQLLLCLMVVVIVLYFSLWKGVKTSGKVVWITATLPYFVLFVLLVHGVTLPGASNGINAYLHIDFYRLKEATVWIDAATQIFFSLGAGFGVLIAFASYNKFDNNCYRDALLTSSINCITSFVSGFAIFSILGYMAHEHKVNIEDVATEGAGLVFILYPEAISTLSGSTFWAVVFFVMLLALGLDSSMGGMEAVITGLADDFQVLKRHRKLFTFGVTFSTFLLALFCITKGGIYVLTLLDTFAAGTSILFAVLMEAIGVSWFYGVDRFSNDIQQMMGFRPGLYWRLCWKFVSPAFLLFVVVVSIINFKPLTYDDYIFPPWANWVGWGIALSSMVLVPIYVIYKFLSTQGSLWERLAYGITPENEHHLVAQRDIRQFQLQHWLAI

Row | Ki | Ki (scintillation proximity assay, 3H-nisoxetine, HEK-293 membranes, read-out: NET Ki) | Compound
1 | 3.6 nM |  | COc1ccc(F)cc1CC(O)(c1ccccc1)[C@H]1CNCCO1 (stereo in doubt) [Example 8, (S,R) 2-(5-Fluoro-2-methoxy-phenyl)-1-morpholin-2-yl-1-phenyl-ethanol hydrochloride]
2 |  | 12.4 nM | OC(Cc1ccccc1OC(F)(F)F)(c1ccccc1)[C@H]1CNCCO1 (stereo in doubt) [Example 5, (S,R) 1-Morpholin-2-yl-1-phenyl-2-(2-trifluoromethoxy-phenyl)-ethanol hydrochloride]
